{
  "source": "patent EP0443996B1",
  "about": "“Esters of (R)(-)-carnitine and acyl (R)(-)-carnitines with beta-hydroxybutyric acid and pharmaceutical compositions containing them for inhibiting neuronal degeneration, liver proteolysis and for the treatment of coma” (Sigma-Tau Industrie Farmaceutiche Riunite S.p.A., priority 1990, dated 1991)",
  "key": {"[1]": {"system": "acetaminophen (paracetamol)-induced hepatic damage", "assay": "Protection against acetaminophen (paracetamol)-induced hepatic damage, serum transaminases", "assay_type": "in vivo, Male Wistar rats", "conditions": "SGOT and SGPT in blood serum; 101 mg/kg body weight orally 1, 8 and 24 hours after paracetamol 1 g/kg per os; sacrifice at 32 hours; with respect to the control animals", "method": "Male Wistar rats weighing 200-250 g (15 rats/group) that had been keept fasting for at least 12 hours, were administered a single dose of paracetamol (1 g/kg body weight, per os). 100 g paracetamol were dissolved in 1000 ml of 5% (w/v) carboxymethylcellulose suspension in water. […] 101 mg ST 784/kg body weight were administered orally (as aqueous solution) 1, 8 and 24 hours, respectively, following paracetamol administration. The animals were sacrificed 32 hours following paracetamol administration.\nTransaminases (SGOT and SGPT) were measured in blood serum. ST 784 provoked a decrease in transaminases exceding 60% ([…]) with respect to the control animals."}, "post-oligaemic rats [2]": {"system": "post-oligaemic rats", "assay": "One-trial passive avoidance task (retention of conditioned response)", "assay_type": "in vivo, Sprague-Dawley (Iffa Credo) male rats", "method": "(§1) The study was conducted with a view to assessing the therapeutical effect of ST 687 administered i.p. to rats immediately after the effect of a transient forebrain oligohaemia in the experiment animals were detected. In particular, the propensity of post-oligaemic rats to develop conditioning was studied in a one-trial passive avoidance task. Concurrently, the neurologic deficit during a 3-day period following the ischaemic insult was assessed, and finally the extent of the oedema was assessed by measuring the water content of the cerebral tissue.\n(§2) In the experiments Sprague-Dawley (Iffa Credo) male rats weighing 230-250 g were used, that had been caged (5 rats/cage) under conditions of controlled temperature (22°C±1°C), 50% relative humidity and 12-hours dark-light cycle (light on from 8 a.m. to 8 p.m.). The rats were fed UAR (Epinay Orge, France) laboratory chow and had free access to tap water. The rats were caged for 5 days before surgery.\n(§3) Under light ether anesthesia, carotid arteries were isolated and loosely surrounded by a thread. Twenty-four hours later, reversible incomplete forebrain ischemia was produced by bilateral common carotid artery occlusion combined with sodium nitroprusside-induced arterial hypotension (1.1 mg/rat s.c.). Mean arterial blood pressure (MABP) was lowered and maintained nearby 6.6 kPa for 45 min. Then it gruadually returned to normal within the 60th minute when carotid occlusion was removed.\nThe functional aspects of the cerebral ischemic injury were assessed by a one trial learning procedure (passive avoidance reaction) as originally described by Kurtz K. H. e Pearl J.: The effects of prior fear experience in acquired drive learning. J. Comp. Physiol, Psychol, 1960, 53 : 201-206, and more extensively developed by Buresova et al.: Effect of atropine on learning, extinction, retention and retrieval in rats. Psychopharmacologia, 1964, 5 : 255-263.\nFour hours after clipping-off untreated post-oligaemic rats were placed into an apparatus consisting of a large illuminated compartment (40 x 40 cm) connected by an opening to a small dark compartment (10 x 10 cm) with an electrified grid floor. The animals placed into the large compartment were allowed to explore the apparatus for three minutes. The latency to enter and the time spent in the small compartment were measured with a stop watch. Habituation to the experimental conditions was repeated 24 and 29 hours after ischemia. At the end of the third habituation trial, the opening between the two compartments was closed and the rat, placed into the small compartment, received intermittent electrical foot-shocks for one minute. The retention of the passive avoidance towards the small compartment was tested 24 and 48 hours after the last habituation trial i.e. 53 and 77 hours post-oligohaemia, respectively. The criterion used to determine whether an animal was conditioned was based upon the rat remaining in the large illuminated compartment for 180 sec. without entry into the small dark compartment."}, "post-oligaemic rats [3]": {"system": "post-oligaemic rats", "assay": "Cerebral oedema upon brain excision 77 hours post-oligohaemia", "assay_type": "in vivo, Sprague-Dawley (Iffa Credo) male rats", "conditions": "survivors", "method": "as §1, §2, §3\nImmediately after the last retention trial, i.e. 77 hours post-oligohaemia, rats were sacrificed by decapitation, their brains rapidly removed and macroscopically examined in terms of swelling. Brain water content was determined by the method wet weight/dry weight."}, "post-oligaemic rats [4]": {"system": "post-oligaemic rats", "assay": "Death rate after transient forebrain oligohaemia", "assay_type": "in vivo, Sprague-Dawley (Iffa Credo) male rats", "method": "as §1, §2, §3"}},
  "data": [
    {"molecule": "CC(CC(=O)O)OC(=O)CC(O)C[N+](C)(C)C", "note": "(racemic) [ST 784, ester of R(-)-carnitine chloride with R,S(±)beta-hydroxybutyric acid]", "values": [
      {"measurement": "decrease in transaminases", "setting": "[1]", "result": "> 60", "unit": "%"}
    ]},
    {"molecule": "CC(=O)O[C@H](CC(=O)[O-])C[N+](C)(C)C", "note": "[Acetyl (R)(-)-carni-tine, acetyl (R)(-)-carnitine, reference compound]", "values": [
      {"measurement": "Incidence of retention of conditioned response (%)", "setting": "post-oligaemic rats [2]; 12,5 mg. kg i.p. twice a day, + 53 h", "result": "80,0%"},
      {"measurement": "Incidence of retention of conditioned response (%)", "setting": "post-oligaemic rats [2]; 12,5 mg. kg i.p. twice a day, + 77 h", "result": "80,0%"},
      {"measurement": "Incidence of retention of conditioned response (%)", "setting": "post-oligaemic rats [2]; 25,0 mg. kg i.p. twice a day, + 53 h", "result": "60,0%"},
      {"measurement": "Incidence of retention of conditioned response (%)", "setting": "post-oligaemic rats [2]; 25,0 mg. kg i.p. twice a day, + 77 h", "result": "70,0%"},
      {"measurement": "Incidence of retention of conditioned response (%)", "setting": "post-oligaemic rats [2]; 50,0 mg. kg i.p. twice a day, + 53 h", "result": "70,0%"},
      {"measurement": "Incidence of retention of conditioned response (%)", "setting": "post-oligaemic rats [2]; 50,0 mg. kg i.p. twice a day, + 77 h", "result": "50,0%"},
      {"measurement": "Incidence of cerebral oedema upon excision (3)", "setting": "post-oligaemic rats [3]; 12,5 mg. kg i.p. twice a day", "result": "80,0"},
      {"measurement": "Incidence of cerebral oedema upon excision (3)", "setting": "post-oligaemic rats [3]; 25,0 mg. kg i.p. twice a day", "result": "60,0"},
      {"measurement": "Incidence of cerebral oedema upon excision (3)", "setting": "post-oligaemic rats [3]; 50,0 mg. kg i.p. twice a day", "result": "90,0"},
      {"measurement": "Death rate after 72 hours (%)", "setting": "post-oligaemic rats [4]; 12,5 mg. kg i.p. twice a day", "result": "33,3%"},
      {"measurement": "Death rate after 72 hours (%)", "setting": "post-oligaemic rats [4]; 25,0 mg. kg i.p. twice a day", "result": "41,2%"},
      {"measurement": "Death rate after 72 hours (%)", "setting": "post-oligaemic rats [4]; 50,0 mg. kg i.p. twice a day", "result": "50,0%"}
    ]},
    {"molecule": "ester of isovaleryl (R)(-)-carnitine chloride with (R,S)(±)-beta-hydroxybutyric acid [ST 687]", "values": [
      {"measurement": "Incidence of retention of conditioned response (%)", "setting": "post-oligaemic rats [2]; 2,5 mg. kg i.p. twice a day, + 53 h", "result": "20,0%"},
      {"measurement": "Incidence of retention of conditioned response (%)", "setting": "post-oligaemic rats [2]; 2,5 mg. kg i.p. twice a day, + 77 h", "result": "40,0%"},
      {"measurement": "Incidence of retention of conditioned response (%)", "setting": "post-oligaemic rats [2]; 5,0 mg. kg i.p. twice a day, + 53 h", "result": "60,0%"},
      {"measurement": "Incidence of retention of conditioned response (%)", "setting": "post-oligaemic rats [2]; 5,0 mg. kg i.p. twice a day, + 77 h", "result": "60,0%"},
      {"measurement": "Incidence of retention of conditioned response (%)", "setting": "post-oligaemic rats [2]; 7,5 mg. kg i.p. twice a day, + 53 h", "result": "53,3%"},
      {"measurement": "Incidence of retention of conditioned response (%)", "setting": "post-oligaemic rats [2]; 7,5 mg. kg i.p. twice a day, + 77 h", "result": "66,7%"},
      {"measurement": "Incidence of cerebral oedema upon excision (3)", "setting": "post-oligaemic rats [3]; 2,5 mg. kg i.p. twice a day", "result": "80,0"},
      {"measurement": "Incidence of cerebral oedema upon excision (3)", "setting": "post-oligaemic rats [3]; 5,0 mg. kg i.p. twice a day", "result": "50,0"},
      {"measurement": "Incidence of cerebral oedema upon excision (3)", "setting": "post-oligaemic rats [3]; 7,5 mg. kg i.p. twice a day", "result": "66,7"},
      {"measurement": "Death rate after 72 hours (%)", "setting": "post-oligaemic rats [4]; 2,5 mg. kg i.p. twice a day", "result": "47,4%"},
      {"measurement": "Death rate after 72 hours (%)", "setting": "post-oligaemic rats [4]; 5,0 mg. kg i.p. twice a day", "result": "37,5%"},
      {"measurement": "Death rate after 72 hours (%)", "setting": "post-oligaemic rats [4]; 7,5 mg. kg i.p. twice a day", "result": "62,5%"}
    ]}
  ]
}
